Reference: PubChem BioAssay (NCI)
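Protocol summary: plate cells (96-well), add compound at 5 concentrations, incubate 48 h, interpolate endpoints linearly. The concentration for 50% growth inhibition is given as GI50. TGI is the concentration that stops growth completely.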

What was measured:
Assay in all cases: inhibition of tumour cell growth, NCI panel, 48 h
SK-MEL-2 melanoma = test system: SK-MEL-2 melanoma
A549 NSCLC = test system: A549 NSCLC
BT-549 breast = test system: BT-549 breast
EKVX NSCLC = test system: EKVX NSCLC
U251 CNS = test system: U251 CNS
MOLT-4 leukemia = test system: MOLT-4 leukemia
SNB-19 CNS = test system: SNB-19 CNS
OVCAR-5 ovarian = test system: OVCAR-5 ovarian
NCI-H23 lung = test system: NCI-H23 lung
HCT-116 colon = test system: HCT-116 colon
NCI-H522 lung = test system: NCI-H522 lung
SK-MEL-5 melanoma = test system: SK-MEL-5 melanoma
UACC-62 melanoma = test system: UACC-62 melanoma
HS 578T breast = test system: HS 578T breast
HCC-2998 colon = test system: HCC-2998 colon
TK-10 renal = test system: TK-10 renal
HOP-62 NSCLC = test system: HOP-62 NSCLC
MDA-MB-231 breast = test system: MDA-MB-231 breast
PC-3 prostate = test system: PC-3 prostate
MALME-3M melanoma = test system: MALME-3M melanoma
SK-OV-3 ovarian = test system: SK-OV-3 ovarian
CCRF-CEM leukemia = test system: CCRF-CEM leukemia
OVCAR-3 ovarian = test system: OVCAR-3 ovarian
SNB-75 CNS = test system: SNB-75 CNS
RPMI-8226 leukemia = test system: RPMI-8226 leukemia
K-562 leukemia = test system: K-562 leukemia
SF-295 CNS = test system: SF-295 CNS
SF-539 CNS = test system: SF-539 CNS
T-47D breast = test system: T-47D breast
NCI/ADR-RES ovarian = test system: NCI/ADR-RES ovarian
OVCAR-8 ovarian = test system: OVCAR-8 ovarian
RXF 393 renal = test system: RXF 393 renal
SW-620 colon = test system: SW-620 colon
UO-31 renal = test system: UO-31 renal
MCF7 breast = test system: MCF7 breast
786-0 renal = test system: 786-0 renal
SF-268 CNS = test system: SF-268 CNS
SN12C renal = test system: SN12C renal
HL-60(TB) leukemia = test system: HL-60(TB) leukemia
LOX IMVI melanoma = test system: LOX IMVI melanoma
MDA-MB-435 = test system: MDA-MB-435
COLO 205 colon = test system: COLO 205 colon
NCI-H460 lung = test system: NCI-H460 lung
KM12 colon = test system: KM12 colon
DU-145 prostate = test system: DU-145 prostate
NCI-H226 lung = test system: NCI-H226 lung
ACHN renal = test system: ACHN renal
HT29 colon = test system: HT29 colon
SK-MEL-28 melanoma = test system: SK-MEL-28 melanoma
UACC-257 melanoma = test system: UACC-257 melanoma
SR leukemia = test system: SR leukemia
HCT-15 colon = test system: HCT-15 colon
IGROV1 ovarian = test system: IGROV1 ovarian
HOP-92 NSCLC = test system: HOP-92 NSCLC
M14 melanoma = test system: M14 melanoma
CAKI-1 renal = test system: CAKI-1 renal
OVCAR-4 ovarian = test system: OVCAR-4 ovarian

Compound: COc1cccc(-c2nc3sccn3c2-c2ccnc(NCCCNS(=O)(=O)c3cccc(F)c3)c2)c1
- GI50 (SK-MEL-2 melanoma): 2.18 µM
- TGI (SK-MEL-2 melanoma): 5.44 µM
- GI50 (A549 NSCLC): 2.99 µM
- TGI (A549 NSCLC): > 100 µM
- GI50 (BT-549 breast): 2.39 µM
- TGI (BT-549 breast): 7.05 µM
- GI50 (EKVX NSCLC): 2.99 µM
- TGI (EKVX NSCLC): > 100 µM
- GI50 (U251 CNS): 4.77 µM
- TGI (U251 CNS): > 100 µM
- GI50 (MOLT-4 leukemia): 1.84 µM
- TGI (MOLT-4 leukemia): 5.46 µM
- GI50 (SNB-19 CNS): 5.6 µM
- TGI (SNB-19 CNS): > 100 µM
- GI50 (OVCAR-5 ovarian): 4.41 µM
- TGI (OVCAR-5 ovarian): > 100 µM
- GI50 (NCI-H23 lung): 2.12 µM
- TGI (NCI-H23 lung): 7.29 µM
- GI50 (HCT-116 colon): 2.83 µM
- TGI (HCT-116 colon): > 100 µM
- GI50 (NCI-H522 lung): 2.11 µM
- TGI (NCI-H522 lung): 8.41 µM
- GI50 (SK-MEL-5 melanoma): 1.56 µM
- TGI (SK-MEL-5 melanoma): 3.63 µM
- GI50 (UACC-62 melanoma): 1.62 µM
- TGI (UACC-62 melanoma): 5 µM
- GI50 (HS 578T breast): 3 µM
- TGI (HS 578T breast): > 100 µM
- GI50 (HCC-2998 colon): 5.12 µM
- TGI (HCC-2998 colon): > 100 µM
- GI50 (TK-10 renal): 3.8 µM
- TGI (TK-10 renal): 31.9 µM
- GI50 (HOP-62 NSCLC): 2.83 µM
- TGI (HOP-62 NSCLC): 29.1 µM
- GI50 (MDA-MB-231 breast): 3.62 µM
- TGI (MDA-MB-231 breast): > 100 µM
- GI50 (PC-3 prostate): 2.12 µM
- TGI (PC-3 prostate): 11.6 µM
- GI50 (MALME-3M melanoma): 2.23 µM
- TGI (MALME-3M melanoma): 7.24 µM
- GI50 (SK-OV-3 ovarian): 4.86 µM
- TGI (SK-OV-3 ovarian): > 100 µM
- GI50 (CCRF-CEM leukemia): 2.26 µM
- TGI (CCRF-CEM leukemia): > 100 µM
- GI50 (OVCAR-3 ovarian): 3.06 µM
- TGI (OVCAR-3 ovarian): > 100 µM
- GI50 (SNB-75 CNS): 1.73 µM
- TGI (SNB-75 CNS): 5.47 µM
- GI50 (RPMI-8226 leukemia): 1.29 µM
- TGI (RPMI-8226 leukemia): 4.56 µM
- GI50 (K-562 leukemia): 1.77 µM
- TGI (K-562 leukemia): > 100 µM
- GI50 (SF-295 CNS): 2.37 µM
- TGI (SF-295 CNS): 7.48 µM
- GI50 (SF-539 CNS): 3.87 µM
- TGI (SF-539 CNS): > 100 µM
- GI50 (T-47D breast): 1.24 µM
- TGI (T-47D breast): 4.93 µM
- GI50 (NCI/ADR-RES ovarian): 2.09 µM
- TGI (NCI/ADR-RES ovarian): 6.41 µM
- GI50 (OVCAR-8 ovarian): 2.42 µM
- TGI (OVCAR-8 ovarian): 18.9 µM
- GI50 (RXF 393 renal): 2.47 µM
- TGI (RXF 393 renal): > 100 µM
- GI50 (SW-620 colon): 3.16 µM
- TGI (SW-620 colon): > 100 µM
- GI50 (UO-31 renal): 1.25 µM
- TGI (UO-31 renal): 5.37 µM
- GI50 (MCF7 breast): 2.49 µM
- TGI (MCF7 breast): > 100 µM
- GI50 (786-0 renal): 4.49 µM
- TGI (786-0 renal): > 100 µM
- GI50 (SF-268 CNS): 3.26 µM
- TGI (SF-268 CNS): > 100 µM
- GI50 (SN12C renal): 2.94 µM
- TGI (SN12C renal): > 100 µM
- GI50 (HL-60(TB) leukemia): 1.84 µM
- TGI (HL-60(TB) leukemia): 4.91 µM
- GI50 (LOX IMVI melanoma): 2.63 µM
- TGI (LOX IMVI melanoma): 14.8 µM
- GI50 (MDA-MB-435): 2.29 µM
- TGI (MDA-MB-435): 5.71 µM
- GI50 (COLO 205 colon): 2.22 µM
- TGI (COLO 205 colon): 11.1 µM
- GI50 (NCI-H460 lung): 4.04 µM
- TGI (NCI-H460 lung): > 100 µM
- GI50 (KM12 colon): 3.17 µM
- TGI (KM12 colon): 27.3 µM
- GI50 (DU-145 prostate): 3.04 µM
- TGI (DU-145 prostate): > 100 µM
- GI50 (NCI-H226 lung): 2.38 µM
- TGI (NCI-H226 lung): 8.38 µM
- GI50 (ACHN renal): 2.22 µM
- TGI (ACHN renal): 10.6 µM
- GI50 (HT29 colon): 3.01 µM
- TGI (HT29 colon): 23.9 µM
- GI50 (SK-MEL-28 melanoma): 2.96 µM
- TGI (SK-MEL-28 melanoma): 9.82 µM
- GI50 (UACC-257 melanoma): 2.89 µM
- TGI (UACC-257 melanoma): 9.68 µM
- GI50 (SR leukemia): 2.59 µM
- TGI (SR leukemia): > 100 µM
- GI50 (HCT-15 colon): 2.63 µM
- TGI (HCT-15 colon): > 100 µM
- GI50 (IGROV1 ovarian): 2.39 µM
- TGI (IGROV1 ovarian): 9.77 µM
- GI50 (HOP-92 NSCLC): 1.52 µM
- TGI (HOP-92 NSCLC): > 100 µM
- GI50 (M14 melanoma): 2.35 µM
- TGI (M14 melanoma): 6.05 µM

Compound: COc1ccc2c(C)cc(N/N=C/c3ccc(OC)c4ccccc34)nc2c1
- TGI (SK-MEL-2 melanoma): 37.2 µM
- TGI (A549 NSCLC): 34.8 µM
- TGI (BT-549 breast): 46.2 µM
- TGI (EKVX NSCLC): 35.1 µM
- TGI (U251 CNS): 13.2 µM
- TGI (MOLT-4 leukemia): 52.9 µM
- TGI (SNB-19 CNS): 41.9 µM
- TGI (OVCAR-5 ovarian): 29.1 µM
- TGI (NCI-H23 lung): 32.8 µM
- TGI (HCT-116 colon): 18.1 µM
- TGI (NCI-H522 lung): 26.7 µM
- TGI (SK-MEL-5 melanoma): 30.3 µM
- TGI (UACC-62 melanoma): 28.3 µM
- TGI (HS 578T breast): 32.8 µM
- TGI (TK-10 renal): 31.8 µM
- TGI (HOP-62 NSCLC): 34.4 µM
- TGI (CAKI-1 renal): 26.9 µM
- TGI (MDA-MB-231 breast): 17.4 µM
- TGI (PC-3 prostate): 34.1 µM
- TGI (MALME-3M melanoma): 36.3 µM
- TGI (SK-OV-3 ovarian): 33.8 µM
- TGI (CCRF-CEM leukemia): 7.47 µM
- TGI (OVCAR-3 ovarian): 9.02 µM
- TGI (SNB-75 CNS): 42.2 µM
- TGI (RPMI-8226 leukemia): 8.64 µM
- TGI (K-562 leukemia): 32.3 µM
- TGI (SF-295 CNS): 32 µM
- TGI (SF-539 CNS): 30.6 µM
- TGI (T-47D breast): 24.1 µM
- TGI (NCI/ADR-RES ovarian): 32.7 µM
- TGI (OVCAR-8 ovarian): 39.6 µM
- TGI (RXF 393 renal): 39.8 µM
- TGI (SW-620 colon): 22.2 µM
- TGI (UO-31 renal): 25.6 µM
- TGI (MCF7 breast): 44.6 µM
- TGI (786-0 renal): 26.4 µM
- TGI (SF-268 CNS): 32.6 µM
- TGI (SN12C renal): 5.52 µM
- TGI (OVCAR-4 ovarian): 45.1 µM
- TGI (HL-60(TB) leukemia): 49.3 µM
- TGI (LOX IMVI melanoma): 12.3 µM
- TGI (MDA-MB-435): 24.1 µM
- TGI (COLO 205 colon): 42 µM
- TGI (NCI-H460 lung): 41.1 µM
- TGI (KM12 colon): 29.6 µM
- TGI (DU-145 prostate): 16.4 µM
- TGI (NCI-H226 lung): 29.6 µM
- TGI (ACHN renal): 15.8 µM
- TGI (HT29 colon): 32.7 µM
- TGI (SK-MEL-28 melanoma): 31.6 µM
- TGI (UACC-257 melanoma): 36.9 µM
- TGI (SR leukemia): 22.3 µM
- TGI (HCT-15 colon): 23.4 µM
- TGI (IGROV1 ovarian): 29.3 µM
- TGI (HOP-92 NSCLC): 25.4 µM
- TGI (M14 melanoma): 31.9 µM
